Laboratory results taken from patent US9133148B2, “Carbamate compounds and of making and using same” (Abide Therapeutics, Inc., priority 2012, dated 2015).

Assays:
Format in all cases: biochemical
ABHD6 [1] = biological target: T1, ABHD6 (Mus musculus (Mouse), UniProt Q8R2Y0); test: Competitive ABPP, % inhibition at 1 uM, ABHD6
Procedure: (§1) In Vitro Competitive Activity-Based Protein Profiling.
(§2) Proteomes (mouse brain membrane fraction or cell lysates) ([…], 1.0 mg/mL total protein concentration) were preincubated with varying concentrations of inhibitors at 37° C. After 30 min, FP-Rh (1.0 μL, 50 μM in DMSO) was added and the mixture was incubated for another 30 min at 37° C. Reactions were quenched with SDS loading buffer (50 μL—4×) and run on SDS-PAGE.

FAAH [2] = biological target: T2, FAAH (Mus musculus (Mouse), UniProt O08914); test: Competitive ABPP, % inhibition at 1 uM, FAAH
Procedure: as §1
as §2, with “SDS-PAGE. Following gel imaging, serine hydrolase activity was determined by measuring fluorescent intensity of gel bands corresponding to MAGL, ABHD6 and FAAH using ImageJ 1.43u software.” for “SDS-PAGE.”

MAGL [3] = biological target: T3, MAGL (Mus musculus (Mouse), UniProt O35678); test: Competitive ABPP, % inhibition at 1 uM, MAGL
Procedure: as §1, §2

FAAH [4] = biological target: T2, FAAH; test: In vitro competitive activity-based protein profiling (FP-Rh), mouse FAAH; settings: mouse brain membrane proteome
Procedure: as §1, §2

MAGL [5] = biological target: T3, MAGL; test: In vitro competitive activity-based protein profiling (FP-Rh), mouse MAGL; settings: mouse brain membrane proteome
Procedure: as §1, §2

ABHD6 [6] = biological target: T1, ABHD6; test: In vitro competitive activity-based protein profiling (FP-Rh), mouse ABHD6; settings: mouse brain membrane proteome
Procedure: as §1, §2

T3 sequence (O35678 whole entry): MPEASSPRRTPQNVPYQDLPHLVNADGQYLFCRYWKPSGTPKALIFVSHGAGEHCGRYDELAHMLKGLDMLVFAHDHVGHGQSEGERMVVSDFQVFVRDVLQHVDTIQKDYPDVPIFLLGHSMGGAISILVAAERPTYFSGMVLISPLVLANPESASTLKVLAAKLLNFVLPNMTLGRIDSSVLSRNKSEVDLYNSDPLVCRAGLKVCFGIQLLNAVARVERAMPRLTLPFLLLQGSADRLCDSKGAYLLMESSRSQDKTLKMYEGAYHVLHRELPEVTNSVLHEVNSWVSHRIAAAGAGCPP
T1 sequence (Q8R2Y0 whole entry): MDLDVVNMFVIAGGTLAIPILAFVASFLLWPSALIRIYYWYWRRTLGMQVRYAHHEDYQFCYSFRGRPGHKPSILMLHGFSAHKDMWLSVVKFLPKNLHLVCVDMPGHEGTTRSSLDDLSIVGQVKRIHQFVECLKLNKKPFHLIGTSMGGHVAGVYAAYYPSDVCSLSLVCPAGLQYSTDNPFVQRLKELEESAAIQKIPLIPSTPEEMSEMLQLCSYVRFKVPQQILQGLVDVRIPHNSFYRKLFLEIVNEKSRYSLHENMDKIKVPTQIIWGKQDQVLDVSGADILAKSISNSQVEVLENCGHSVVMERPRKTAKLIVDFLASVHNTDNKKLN
T2 sequence (O08914 whole entry): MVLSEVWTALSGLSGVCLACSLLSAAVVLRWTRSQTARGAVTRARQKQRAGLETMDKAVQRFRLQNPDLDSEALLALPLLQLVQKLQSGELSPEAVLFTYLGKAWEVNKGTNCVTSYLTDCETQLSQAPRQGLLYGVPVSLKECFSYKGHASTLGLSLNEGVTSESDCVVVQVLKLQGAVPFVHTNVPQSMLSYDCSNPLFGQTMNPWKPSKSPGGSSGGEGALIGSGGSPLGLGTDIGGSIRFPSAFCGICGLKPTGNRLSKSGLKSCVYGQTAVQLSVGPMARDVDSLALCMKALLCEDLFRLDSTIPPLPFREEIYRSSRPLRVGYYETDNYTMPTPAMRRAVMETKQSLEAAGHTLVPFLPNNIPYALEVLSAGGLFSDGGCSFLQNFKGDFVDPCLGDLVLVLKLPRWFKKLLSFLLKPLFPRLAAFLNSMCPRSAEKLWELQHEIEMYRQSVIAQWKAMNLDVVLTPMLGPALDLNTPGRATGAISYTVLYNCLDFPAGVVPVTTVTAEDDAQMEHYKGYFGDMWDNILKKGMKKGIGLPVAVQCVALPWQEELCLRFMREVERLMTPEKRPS

| SMILES | IC50 (FAAH [4]; competitive ABPP (Table 7)) | IC50 (MAGL [5]; competitive ABPP (Table 7)) | IC50 (ABHD6 [6]; competitive ABPP (Table 7)) | other results |
| --- | --- | --- | --- | --- |
| CC1CN(C(=O)OC(C(F)(F)F)C(F)(F)F)CCN1C(c1ccc(Cl)cc1)c1ccc(Cl)cc1 (stereo not drawn) [Example 2h, 1,1,1,3,3,3-hexafluoropropan-2-yl 4-[bis(4-chlorophenyl)methyl]-3-methylpiperazine-1-carboxylate] | – | – | – | inhibition at 1 µM (ABHD6 [1]): 25 to 75%; inhibition at 1 µM (FAAH [2]): < 25%; inhibition at 1 µM (MAGL [3]): 25 to 75% |
| Cn1ncc2cc(C(c3ccc4c(cnn4C)c3)N3CCN(C(=O)OC(C(F)(F)F)C(F)(F)F)CC3)ccc21 [Example 2k, 1,1,1,3,3,3-hexafluoropropan-2-yl 4-(bis(1-methyl-1H-indazol-5-yl)methyl)piperazine-1-carboxylate] | – | – | – | inhibition at 1 µM (FAAH [2]): < 25% |
| O=C(OC(C(F)(F)F)C(F)(F)F)N1CCN(Cc2c(Cl)cccc2N2CCOCC2)CC1 [Example 9ac, 1,1,1,3,3,3-hexafluoropropan-2-yl 4-[[2-chloro-6-(morpholin-4-yl)phenyl]methyl]piperazine-1-carboxylate] | – | – | – | inhibition at 1 µM (FAAH [2]): < 25% |
| O=C(OC(C(F)(F)F)C(F)(F)F)N1CCN(Cc2ccc(Cl)cc2-n2cc(Cl)cn2)CC1 [Example 9ai, 1,1,1,3,3,3-hexafluoropropan-2-yl 4-(4-chloro-2-(4-chloro-1H-pyrazol-1-yl)benzyl)piperazine-1-carboxylate] | > 10000 nM | < 100 nM | 100 to 1000 nM | – |
| O=C(OC(C(F)(F)F)C(F)(F)F)N1CCN(Cc2ccc(N3CCCC3)cc2OC(F)(F)F)CC1 [Example 9ap, 1,1,1,3,3,3-hexafluoropropan-2-yl 4-(4-(pyrrolidin-1-yl)-2-(trifluoromethoxy)benzyl)piperazine-1-carboxylate] | > 10000 nM | 100 to 1000 nM | > 1000 nM | – |
| O=C(OC(C(F)(F)F)C(F)(F)F)N1CCN(Cc2cccc(F)c2N2CCCC2)CC1 [Example 9as, 1,1,1,3,3,3-hexafluoropropan-2-yl 4-(3-fluoro-2-(pyrrolidin-1-yl)benzyl)piperazine-1-carboxylate] | > 10000 nM | 100 to 1000 nM | > 1000 nM | – |
| CC(C)c1cc(N2CCCC2)ccc1CN1CCN(C(=O)OC(C(F)(F)F)C(F)(F)F)CC1 [Example 9au, 1,1,1,3,3,3-hexafluoropropan-2-yl 4-(2-isopropyl-4-(pyrrolidin-1-yl)benzyl)piperazine-1-carboxylate] | > 10000 nM | > 1000 nM | > 1000 nM | – |
| CC(=O)N1CCN(c2cc(Cl)ccc2CN2CCN(C(=O)OC(C(F)(F)F)C(F)(F)F)CC2)CC1 [Example 9aw, 1,1,1,3,3,3-hexafluoropropan-2-yl 4-(2-(4-acetylpiperazin-1-yl)-4-chlorobenzyl)piperazine-1-carboxylate] | > 10000 nM | 100 to 1000 nM | > 1000 nM | – |
| O=C(OC(C(F)(F)F)C(F)(F)F)N1CCN(Cc2ccc(-n3cccn3)c(F)c2)CC1 [Example 9az, 1,1,1,3,3,3-hexafluoropropan-2-yl 4-(3-fluoro-4-(1H-pyrazol-1-yl)benzyl)piperazine-1-carboxylate] | > 10000 nM | 100 to 1000 nM | 100 to 1000 nM | – |
| O=C(OC(C(F)(F)F)C(F)(F)F)N1CCN(Cc2ccc(Br)cc2Oc2ccccc2)CC1 [Example 9b, 1,1,1,3,3,3-hexafluoropropan-2-yl 4-(4-bromo-2-phenoxybenzyl)piperazine-1-carboxylate] | – | – | – | IC50 (FAAH [4]; competitive ABPP): > 10000 nM; IC50 (MAGL [5]; competitive ABPP): < 100 nM; IC50 (ABHD6 [6]; competitive ABPP): 100 to 1000 nM |
| CC(=O)N[C@@H]1CCN(c2cc(Cl)ccc2CN2CCN(C(=O)OC(C(F)(F)F)C(F)(F)F)CC2)C1 [Example 9ba, (R)-1,1,1,3,3,3-hexafluoropropan-2-yl 4-(2-(3-acetamidopyrrolidin-1-yl)-4-chlorobenzyl)piperazine-1-carboxylate] | > 10000 nM | < 100 nM | > 1000 nM | – |
| CC(=O)N[C@H]1CCN(c2cc(Cl)ccc2CN2CCN(C(=O)OC(C(F)(F)F)C(F)(F)F)CC2)C1 [Example 9bb, (S)-1,1,1,3,3,3-hexafluoropropan-2-yl 4-(2-(3-acetamidopyrrolidin-1-yl)-4-chlorobenzyl)piperazine-1-carboxylate] | > 10000 nM | < 100 nM | > 1000 nM | – |
| O=C(OC(C(F)(F)F)C(F)(F)F)N1CCN(Cc2ccc(C(=O)N3CCC3)cc2Cl)CC1 [Example 9be, 1,1,1,3,3,3-hexafluoropropan-2-yl 4-(4-(azetidine-1-carbonyl)-2-chlorobenzyl)piperazine-1-carboxylate] | > 10000 nM | 100 to 1000 nM | 100 to 1000 nM | – |
| O=C(OC(C(F)(F)F)C(F)(F)F)N1CCN(Cc2cccc(Cl)c2C(=O)N2CCCC2)CC1 [Example 9bg, 1,1,1,3,3,3-hexafluoropropan-2-yl 4-(3-chloro-2-(pyrrolidine-1-carbonyl)benzyl)piperazine-1-carboxylate] | > 10000 nM | 100 to 1000 nM | > 1000 nM | – |
| O=C(OC(C(F)(F)F)C(F)(F)F)N1CCN(Cc2ccc(N3CCOCC3)cc2Cl)CC1 [Example 9e, 1,1,1,3,3,3-hexafluoropropan-2-yl 4-(2-chloro-4-morpholinobenzyl)piperazine-1-carboxylate] | > 5000 nM | 100 to 1000 nM | 100 to 1000 nM | – |
| O=C(OC(C(F)(F)F)C(F)(F)F)N1CCN(Cc2ccc(N3CCOCC3)cc2)CC1 [Example 9f, 1,1,1,3,3,3-hexafluoropropan-2-yl 4-(4-morpholinobenzyl)piperazine-1-carboxylate] | > 10000 nM | 100 to 1000 nM | 100 to 1000 nM | – |
| O=C(OC(C(F)(F)F)C(F)(F)F)N1CCN(Cc2ccc(N3CCCC3)cc2)CC1 [Example 9g, 1,1,1,3,3,3-hexafluoropropan-2-yl 4-(4-(pyrrolidin-1-yl)benzyl)piperazine-1-carboxylate] | > 10000 nM | 100 to 1000 nM | > 1000 nM | – |
| O=C(OC(C(F)(F)F)C(F)(F)F)N1CCN(Cc2ccc(N3CCOCC3)c(Cl)c2)CC1 [Example 9h, 1,1,1,3,3,3-hexafluoropropan-2-yl 4-(3-chloro-4-morpholinobenzyl)piperazine-1-carboxylate] | > 10000 nM | 100 to 1000 nM | 100 to 1000 nM | – |
| O=C(OC(C(F)(F)F)C(F)(F)F)N1CCN(Cc2ccc(Cl)cc2)CC1 [Example 9o, 1,1,1,3,3,3-hexafluoropropan-2-yl 4-(4-chlorobenzyl)piperazine-1-carboxylate] | – | – | – | inhibition at 1 µM (FAAH [2]): < 25% |
| Cc1cc(N2CCCC2)ccc1CN1CCN(C(=O)OC(C(F)(F)F)C(F)(F)F)CC1 [Example 9u, 1,1,1,3,3,3-hexafluoropropan-2-yl 4-(2-methyl-4-(pyrrolidin-1-yl)benzyl)piperazine-1-carboxylate] | > 6250 nM | 100 to 1000 nM | > 1000 nM | – |
| COc1ccc(CN2CCN(C(=O)OC(C(F)(F)F)C(F)(F)F)CC2)cc1 [Example 9v, 1,1,1,3,3,3-hexafluoropropan-2-yl 4-(4-methoxybenzyl)piperazine-1-carboxylate] | > 6250 nM | < 100 nM | 100 to 1000 nM | – |
| Cc1ccc(CN2CCN(C(=O)OC(C(F)(F)F)C(F)(F)F)CC2)cc1 [Example 9w, 1,1,1,3,3,3-hexafluoropropan-2-yl 4-(4-methylbenzyl)piperazine-1-carboxylate] | > 1250 nM | < 100 nM | > 1000 nM | – |
| CC(C)n1cc(CN2CCN(C(=O)OC(C(F)(F)F)C(F)(F)F)CC2)c(-c2ccccc2)n1 [Example 10h, 1,1,1,3,3,3-hexafluoropropan-2-yl 4-[[3-phenyl-1-(propan-2-yl)-1H-pyrazol-4-yl]methyl]piperazine-1-carboxylate] | > 10000 nM | 100 to 1000 nM | 100 to 1000 nM | – |
| COc1cc(-c2ccccc2)ccc1CN1CCN(C(=O)OC(C(F)(F)F)C(F)(F)F)CC1 [Example 11j, 1,1,1,3,3,3-hexafluoropropan-2-yl 4-[(2-methoxy-4-phenylphenyl)methyl]piperazine-1-carboxylate] | > 10000 nM | < 100 nM | > 1000 nM | – |
| O=C(OC(C(F)(F)F)C(F)(F)F)N1CCN(Cc2ccc(-c3ccccc3)cc2F)CC1 [Example 11p, 1,1,1,3,3,3-hexafluoropropan-2-yl 4-[(2-fluoro-4-phenylphenyl)methyl]piperazine-1-carboxylate] | > 10000 nM | < 100 nM | > 1000 nM | – |
| Cc1cc(-c2ccccc2)ccc1CN1CCN(C(=O)OC(C(F)(F)F)C(F)(F)F)CC1 [Example 11q, 1,1,1,3,3,3-hexafluoropropan-2-yl 4-[(2-methyl-4-phenylphenyl)methyl]piperazine-1-carboxylate] | > 10000 nM | 100 to 1000 nM | > 1000 nM | – |
| CN(C)C(=O)c1cc(-c2ccccc2)ccc1CN1CCN(C(=O)OC(C(F)(F)F)C(F)(F)F)CC1 [Example 11x, 1,1,1,3,3,3-hexafluoropropan-2-yl 4-[[2-(dimethylcarbamoyl)-4-phenylphenyl]methyl]piperazine-1-carboxylate] | > 10000 nM | 100 to 1000 nM | > 1000 nM | – |
